Test results taken from ChEMBL document CHEMBL4000220, “Optimization of spirocyclic proline tryptophan hydroxylase-1 inhibitors” (Bioorg Med Chem Lett, 2017).
The source made the active and inactive calls. No cut-off for these calls is given here.

How the values were obtained:
[1] = biological target: T1, Tryptophan 5-hydroxylase 1 (Homo sapiens, UniProt P17752)
T1 sequence (P17752 whole entry): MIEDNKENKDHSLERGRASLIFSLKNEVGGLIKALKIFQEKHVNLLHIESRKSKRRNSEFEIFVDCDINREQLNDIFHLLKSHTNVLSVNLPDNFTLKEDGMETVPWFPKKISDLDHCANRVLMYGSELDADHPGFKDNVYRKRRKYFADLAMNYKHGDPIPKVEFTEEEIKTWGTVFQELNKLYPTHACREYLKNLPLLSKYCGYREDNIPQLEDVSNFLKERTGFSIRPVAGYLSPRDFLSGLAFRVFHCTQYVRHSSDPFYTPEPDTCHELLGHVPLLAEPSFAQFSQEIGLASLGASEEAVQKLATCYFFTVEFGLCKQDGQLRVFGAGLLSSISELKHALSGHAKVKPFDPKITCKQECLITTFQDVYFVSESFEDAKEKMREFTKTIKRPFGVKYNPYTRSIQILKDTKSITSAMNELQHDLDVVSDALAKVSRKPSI
Description: Inhibition of TPH1 (unknown origin)

[2] = tested on: Mus musculus; assay: In vivo inhibition of TPH1 in mouse assessed as reduction in 5-HT level in intestinal mucosa at 50 mg/kg, po administered daily as single dose relative to control; format: functional
[3] = Drug level in rat hepatocytes treated with ethyl 8-(2-amino-6-((R)-1-(4-chloro-2-(3-methyl-1H-pyrazol-1-yl)phenyl)-2,2,2-trifluoroethoxy)pyrimidin-4-yl)-2,8-diazaspiro[4.5]decane-3-carboxylate; format: ADME, cell-based, Hepatocyte
[4] = tested on: Mus musculus; assay: Drug level in mouse treated with (S)-ethyl 8-(2-amino-6-((R)-1-(3'-tert-butyl-5-chlorobiphenyl-2-yl)-2,2,2-trifluoroethoxy)pyrimidin-4-yl)-2,8-diazaspiro[4.5]decane-3-carboxylate at 10 to 50 mg/kg, po administered as single dose; format: ADME, organism-based; conditions: in vivo
[5] = tested on: Mus musculus; assay: Drug level in mouse treated (S)-ethyl 8-(2-amino-6-((R)-1-(5-chloro-3'-fluorobiphenyl-2-yl)-2,2,2-trifluoroethoxy)pyrimidin-4-yl)-2,8-diazaspiro[4.5]decane-3-carboxylate at 10 to 50 mg/kg, po administered as single dose; format: ADME, organism-based; conditions: in vivo
[6] = tested on: Mus musculus; assay: Drug level in mouse treated with (S)-ethyl 8-(2-amino-6-((R)-1-(5-chloro-3'-methylbiphenyl-2-yl)-2,2,2-trifluoroethoxy)pyrimidin-4-yl)-2,8-diazaspiro[4.5]decane-3-carboxylate at 10 to 50 mg/kg, po administered as single dose; format: ADME, organism-based; conditions: in vivo

Structure (SMILES)	IC50 [1] [nM]	inhibition [2]	also measured
Nc1nc(O[C@H](c2ccc(Cl)cc2-c2cccc(Cl)c2)C(F)(F)F)cc(N2CCC3(CC2)CN[C@H](C(=O)O)C3)n1	30	–	–
CS(=O)(=O)c1ccc(-c2cc(Cl)ccc2[C@@H](Oc2cc(N3CCC4(CC3)CN[C@H](C(=O)O)C4)nc(N)n2)C(F)(F)F)cc1	885	–	–
CSc1ccc2cc(-c3ccc([C@@H](Oc4cc(N5CCC6(CC5)CN[C@H](C(=O)O)C6)nc(N)n4)C(F)(F)F)cc3)ccc2n1	26	inactive	–
CCOc1ccc(-c2cc(Cl)ccc2[C@@H](Oc2cc(N3CCC4(CC3)CN[C@H](C(=O)O)C4)nc(N)n2)C(F)(F)F)cc1Cl	207	–	–
CCOC(=O)[C@@H]1CC2(CCN(c3cc(O[C@H](c4ccc(-c5ccc(OC)cc5)cc4-n4ccc(C)n4)C(F)(F)F)nc(N)n3)CC2)CN1	–	–	inhibition in vivo at 50 mg/kg [2]: 46%
Nc1nc(O[C@H](c2ccc(Cl)cc2-n2ccc(COS(=O)(=O)O)n2)C(F)(F)F)cc(N2CCC3(CC2)CNC(C(=O)O)C3)n1 (stereo not given in full)	–	–	Drug metabolism [3]: Metabolite_Detected
Cc1c2ccc(-c3ccc([C@@H](Oc4cc(N5CCC6(CC5)CN[C@H](C(=O)O)C6)nc(N)n4)C(F)(F)F)cc3)cc2nn1C	37	inactive	–
CCOC(=O)[C@@H]1CC2(CCN(c3cc(O[C@H](c4ccc(Cl)cc4-n4ccc(C)n4)C(F)(F)F)nc(N)n3)CC2)CN1	–	–	inhibition in vivo at 50 mg/kg [2]: 61%
Nc1nc(O[C@H](c2ccc(-c3ccc4ncc(F)cc4c3)cc2)C(F)(F)F)cc(N2CCC3(CC2)CN[C@H](C(=O)O)C3)n1	40	inactive	–
Cc1cc(-c2cc(Cl)ccc2[C@@H](Oc2cc(N3CCC4(CC3)CN[C@H](C(=O)O)C4)nc(N)n2)C(F)(F)F)ccc1Cl	62	–	–
Cc1ccn(-c2cc(-c3ccc(Cl)c(Cl)c3)ccc2[C@@H](Oc2cc(N3CCC4(CC3)CN[C@H](C(=O)O)C4)nc(N)n2)C(F)(F)F)n1	22	–	–
CCOC(=O)[C@@H]1CC2(CCN(c3cc(O[C@H](c4ccc(-c5ccc6cnccc6c5)cc4)C(F)(F)F)nc(N)n3)CC2)CN1	–	inactive	–
CC(C)(C)c1cccc(-c2cc(Cl)ccc2[C@@H](Oc2cc(N3CCC4(CC3)CN[C@H](C(=O)O)C4)nc(N)n2)C(F)(F)F)c1	23	–	Drug metabolism [4]: Metabolite_Detected
Nc1nc(O[C@H](c2ccc(-c3ccc4cnccc4c3)cc2)C(F)(F)F)cc(N2CCC3(CC2)CN[C@H](C(=O)O)C3)n1	25	inactive	–
Nc1nc(O[C@H](c2ccc(Cl)cc2-c2ccc(F)c(F)c2)C(F)(F)F)cc(N2CCC3(CC2)CN[C@H](C(=O)O)C3)n1	35	–	–
CCOC(=O)[C@@H]1CC2(CCN(c3cc(O[C@H](c4ccc(-c5ccc6ncc(F)cc6c5)cc4)C(F)(F)F)nc(N)n3)CC2)CN1	–	inactive	–
CN1CCc2cc(-c3ccc([C@@H](Oc4cc(N5CCC6(CC5)CN[C@H](C(=O)O)C6)nc(N)n4)C(F)(F)F)cc3)ccc2C1=O	39	inactive	–
Nc1nc(O[C@H](c2ccc(Cl)cc2-n2ccc(C(=O)O)n2)C(F)(F)F)cc(N2CCC3(CC2)CNC(C(=O)O)C3)n1 (stereo not given in full)	–	–	Drug metabolism [3]: Metabolite_Detected
Nc1nc(O[C@H](c2ccc(Cl)cc2-c2cc(F)cc(Cl)c2)C(F)(F)F)cc(N2CCC3(CC2)CN[C@H](C(=O)O)C3)n1	35	–	–
Nc1nc(O[C@H](c2ccc(Cl)cc2-c2cccc(F)c2)C(F)(F)F)cc(N2CCC3(CC2)CN[C@H](C(=O)O)C3)n1	32	–	Drug metabolism [5]: Metabolite_Detected
Nc1nc(O[C@H](c2ccc(Cl)cc2-c2ccc(S(N)(=O)=O)cc2)C(F)(F)F)cc(N2CCC3(CC2)CN[C@H](C(=O)O)C3)n1	1130	–	–
Cc1ccn(-c2cc(-c3ccc(C)c(C)c3)ccc2[C@@H](Oc2cc(N3CCC4(CC3)CN[C@H](C(=O)O)C4)nc(N)n2)C(F)(F)F)n1	20	–	–
N#Cc1cccc(-c2cc(Cl)ccc2[C@@H](Oc2cc(N3CCC4(CC3)CN[C@H](C(=O)O)C4)nc(N)n2)C(F)(F)F)c1	30	–	–
CCOC(=O)[C@@H]1CC2(CCN(c3cc(O[C@H](c4ccc(-c5ccc6c(C)nn(C)c6c5)cc4)C(F)(F)F)nc(N)n3)CC2)CN1	–	inactive	–

Structure (SMILES)	IC50 [1] [nM]	inhibition [2]	also measured
Nc1nc(O[C@H](c2ccc(Cl)cc2-c2cccnc2)C(F)(F)F)cc(N2CCC3(CC2)CN[C@H](C(=O)O)C3)n1	65	–	–
Cc1cccc(-c2cc(Cl)ccc2[C@@H](Oc2cc(N3CCC4(CC3)CN[C@H](C(=O)O)C4)nc(N)n2)C(F)(F)F)c1	26	–	Drug metabolism [6]: Metabolite_Detected
Nc1nc(O[C@H](c2ccc(Cl)cc2-c2ccc(Cl)cc2)C(F)(F)F)cc(N2CCC3(CC2)CN[C@H](C(=O)O)C3)n1	53	–	–
CCOC(=O)[C@@H]1CC2(CCN(c3cc(O[C@H](c4ccc(-c5ccc6[nH]ncc6c5)cc4)C(F)(F)F)nc(N)n3)CC2)CN1	–	inactive	–
CCOC(=O)[C@@H]1CC2(CCN(c3cc(O[C@H](c4ccc(Cl)cc4)C(F)(F)F)nc(N)n3)CC2)CN1	–	inactive	–
CCOC(=O)[C@@H]1CC2(CCN(c3cc(O[C@H](c4ccc(-c5ccc6c(C)n(C)nc6c5)cc4)C(F)(F)F)nc(N)n3)CC2)CN1	–	inactive	–
CCOC(=O)[C@@H]1CC2(CCN(c3cc(O[C@H](c4ccc(-c5ccc6c(c5)CCC(=O)N6)cc4)C(F)(F)F)nc(N)n3)CC2)CN1	–	inactive	–
CCOC(=O)[C@@H]1CC2(CCN(c3cc(O[C@H](c4ccc(-c5ccc6c(cnn6C)c5)cc4)C(F)(F)F)nc(N)n3)CC2)CN1	–	inactive	–
COc1ccc(-c2ccc([C@@H](Oc3cc(N4CCC5(CC4)CN[C@H](C(=O)O)C5)nc(N)n3)C(F)(F)F)c(-n3ccc(C)n3)c2)cc1	23	–	–
Nc1nc(O[C@H](c2ccc(-c3ccc4c(c3)CCC(=O)N4)cc2)C(F)(F)F)cc(N2CCC3(CC2)CN[C@H](C(=O)O)C3)n1	28	inactive	–
Nc1nc(O[C@H](c2ccc(Cl)cc2)C(F)(F)F)cc(N2CCC3(CC2)CN[C@H](C(=O)O)C3)n1	460	inactive	–
CCOC(=O)[C@@H]1CC2(CCN(c3cc(O[C@H](c4ccc(-c5ccc6c(c5)CCN(C)C6=O)cc4)C(F)(F)F)nc(N)n3)CC2)CN1	–	inactive	–
NC(=O)c1cccc(-c2cc(Cl)ccc2[C@@H](Oc2cc(N3CCC4(CC3)CN[C@H](C(=O)O)C4)nc(N)n2)C(F)(F)F)c1	40	–	–
Cn1ncc2cc(-c3ccc([C@@H](Oc4cc(N5CCC6(CC5)CN[C@H](C(=O)O)C6)nc(N)n4)C(F)(F)F)cc3)ccc21	30	inactive	–
Cc1cccc(-c2cc(Cl)ccc2[C@@H](Oc2cc(N3CCC4(CC3)CN[C@H](C(=O)O)C4)nc(N)n2)C(F)(F)F)n1	73	–	–
Nc1nc(O[C@H](c2ccc(-c3ccc4[nH]ncc4c3)cc2)C(F)(F)F)cc(N2CCC3(CC2)CN[C@H](C(=O)O)C3)n1	32	inactive	–
CCOC(=O)[C@@H]1CC2(CCN(c3cc(O[C@H](c4ccc(-c5ccc(Cl)c(Cl)c5)cc4-n4ccc(C)n4)C(F)(F)F)nc(N)n3)CC2)CN1	–	–	inhibition in vivo at 50 mg/kg [2]: 60%
Nc1nc(O[C@H](c2ccc(Cl)cc2-n2ccc(CO)n2)C(F)(F)F)cc(N2CCC3(CC2)CNC(C(=O)O)C3)n1 (stereo not given in full)	–	–	Drug metabolism [3]: Metabolite_Detected
CN(C)S(=O)(=O)c1cccc(-c2cc(Cl)ccc2[C@@H](Oc2cc(N3CCC4(CC3)CN[C@H](C(=O)O)C4)nc(N)n2)C(F)(F)F)c1	53	–	–
Cc1nn(C)c2cc(-c3ccc([C@@H](Oc4cc(N5CCC6(CC5)CN[C@H](C(=O)O)C6)nc(N)n4)C(F)(F)F)cc3)ccc12	32	inactive	–
Nc1nc(O[C@H](c2ccc(Cl)cc2-c2cccc(N3CCCC3=O)c2)C(F)(F)F)cc(N2CCC3(CC2)CN[C@H](C(=O)O)C3)n1	77	–	–
CCOC(=O)[C@@H]1CC2(CCN(c3cc(O[C@H](c4ccc(-c5ccc6nc(SC)ccc6c5)cc4)C(F)(F)F)nc(N)n3)CC2)CN1	–	inactive	–
CS(=O)(=O)Nc1cccc(-c2cc(Cl)ccc2[C@@H](Oc2cc(N3CCC4(CC3)CN[C@H](C(=O)O)C4)nc(N)n2)C(F)(F)F)c1	51	–	–
